Key:
[1] = tested on: Proteasome chymotrypsin-like (CT-L) activity; test: Proteasome CT-L activity in blood and tissues after i.v. dosing (FIG. 3); assay type: in vivo, mice (Balb/c); details: i.v. bolus; blood, adrenal gland, heart and liver, in mice
Procedure: Carfilzomib standard was formulated in an aqueous solution of 10% (w/v)sulfobutylether-β-cyclodextrin and 10 mmol/L sodium citrate (pH 3.5) for administration (5 mg/kg). At selected time points after i.v. drug administration, tissue samples (adrenal, heart, liver and bone marrow) were collected. Whole blood was collected by cardiac puncture into tubes containing sodium heparin.
Approximately 0.4 mL of whole blood is collected using either EDTA microcentrifuged tubes. Samples are immediately placed on ice and spun at maximum speed for 2 minutes in a microcentrifuge at room temperature (RT). Cell pellets are stored on wet ice. Whole blood cell pellets are resuspended in 1 ml of phosphate buffered saline (PBS) and centrifuged at max speed at 4° C. Supernatants are removed and the pellets are washed a second time with PBS. Samples are resuspended in 2 volumes of lysis buffer (20 mM Tris, pH 8.0, 5 mM EDTA) then frozen and stored at −80° C. until analysis. […]
All samples were thawed on ice. […] These samples were then ready for assaying, or they may be frozen at −80° C. […] These samples were then ready for assaying, or they may be frozen at −80° C. […] The protein concentration for each sample was measured by Bradford assay. Proteasome chymotrypsin-like (CT-L) activity was quantitated by monitoring the release of free AMC from the fluorogenic peptide Suc-Leu-Leu-Val-Tyr-AMC (BostonBiochem).

[2] = tested on: cellular proteasome chymotrypsin-like (CT-L) in MOLT-4 human acute lymphoblastic leukemia T lymphoblasts; test: Proteosome inhibition in cells (AMC-LLVY fluorescent assay, FIGS. 9-14); assay type: cell-based; details: MOLT-4 cells, 1 hour incubation; read-out: cellular proteasome chymotrypsin-like (CT-L) IC50 inhibitory potency
Procedure: MOLT-4 human acute lymphoblastic leukemia T lymphoblasts were grown for at least 6 passages in growth media (RPMI-1640 basal media supplemented with 10% FBS and 1×L-glutamine). […] Serial dilutions were performed in DMSO to produce concentrations covering 7 logs, and then each serial dilution was further diluted 40× in growth media. Dilutions were then added in equal volume to wells containing cells, further diluting compound concentrations by two-fold. Cells were incubated at 37° C. (5% CO2) for 1 hour, then spun at 1500 rpm for 5 mins at RT. Media was removed and the cells were washed with PBS 3 times. After the last wash, supernatant was removed and the cell pellets were frozen on dry ice. Cell pellets were thawed and then lysed by resuspending in 50 uL lysis buffer on ice (20 mM Tris-HCl, 5 mM EDTA, pH 8). The preparation was centrifuged at 1500 rpm for 5 mins and then utilized directly for AMC-LLVY fluorescent assay.

[3] = tested on: HT-29 Colorectal Adenocarcinoma Xenograph Model; test: Second efficacy study in HT-29 xenograph model (FIG. 7); assay type: in vivo, SCID Beige Mice
Description: (§1) Female Beige Severe Combined Immune Deficiency (SCID) mice (60 plus spares) were purchased from Harlan Laboratories (Livermore, Calif.) as 6- to 7-week-old mice. Following arrival, animals were weighed using an electronic balance (Ohaus SCOUT® PRO, Parsippany, N.J.), given a clinical examination to ensure that the animals were in good condition, and housed 5 per cage (prior to dosing). The animals were maintained in a HEPA-filtered environment in a Micro-VENT full-ventilation rodent housing system (Allentown Caging Equipment Co., Allentown, N.J.) providing at least 10 room air changes per hour Animal room controls were set to maintain temperature and relative humidity at 20° C.±1° C. and 50%±20%, respectively. Housing rooms were on a 12:12 light/dark cycle. Cages were autoclaved, and animals were bedded on SaniChip irradiated bedding 7990.BG (Harlan Teklad; Hayward, Calif.). Water was autoclaved and supplied ad libitum to each cage via water bottles. Irradiated 2018 Teklad Global 16% Protein Rodent Diet ((Harlan Teklad) supplied ad libitum to each cage.
Example 13 was formulated as described herein to the desired concentration. Carfilzomib was provided as CFZ-captisol (at 1 mg/mL). a powder sample of Example 13 was diluted to 30 mg/ml (Group 3) or 50 mg/ml (Group 4) in 10% ETOH/saline. Vehicle and CFZ-captisol were stored at 4° C. throughout the study. […]

[4] = tested on: HT-29 Human Colorectal Adenocarcinoma Xenograph Model; test: Efficacy study in HT-29 xenograph model (FIG. 5, FIG. 6, Table 6); assay type: in vivo, SCID Beige Mice; details: for % Change compared to Vehicle: Day 40; for Day 0 Tumor Vol: baseline; for # of animals at day 40: n = 10 at start
Description: as §1
Example 13 was prepared as generally described above. The carfilzomib comparator compound was prepared as CFZ-captisol (at 1 mg/mL). A powder sample of example 13 was diluted to 30 mg/ml (Group 3) or 50 mg/ml (Group 3 beginning fourth dose) or 40 mg/ml (Group 4) in 10% ETOH/saline. Vehicle and CFZ-captisol were stored at 4° C. throughout the study. During the study, example 13 was inspected regularly for potential changes in the quality of the suspension; none were observed
NCI-HT29 (HT-29; ATCC® HTB-38™), a human colorectal adenocarcinoma cancer cell (CA) line, was purchased from ATCC (Manassas, Va.). Following receipt at the MGI, cells were grown in-house for 7 passages in RPMI 1640 and 10% fetal bovine serum, then used to generate frozen stocks. The cells were recovered from the frozen stocks and cultured as above. Following growth, the cells were spun down and resuspended at a concentration of 5E07 cells/mL in serum-free medium without additives, then combined 1:1 with Matrigel™ (Trevigen, Gaithersburg, Md.). At the time of implant, cells corresponded to MGI Passage 7 (MGP7).
At approximately 3 weeks prior to the projected staging day, mice were implanted by subcutaneous (SC) injection into the lower left abdominal flank with 200 μL (5.0E06 cells) per mouse of the freshly prepared HT29:Matrigel mixture. All procedures were carried out in HEPA-filtered laminar-flow hoods.
When the tumors reached a mean volume of approximately 200 mm^3 per mouse, forty animals with established tumors and moderate body weights were randomized into 4 treatment groups (n=10 mice per group). Starting on Day 0, animals were administered by once-weekly (qw) injection with vehicle (Group 1) or twice-weekly D1D2 injection (i.e., two adjacent days each week) with CFZ-captisol at 5 mpk (Group 2) or OP-59381 at 150 mg/kg (Groups 3). Starting with the fourth dose (i.e., after three week), dosing of Group 3 animals was increased to 250 mg/kg. Group 4 was dosed once-weekly (qw) injection with or OP-59381 (Example 13) at 200 mg/kg. All of these doses were administered as intravenous (IV) injections at dose volumes of 5 mL/kg. After the IV dosing for the seventh week (i.e., after Day 42 for Groups 1-4), the tumor treatment efficacy appeared to slow or cease altogether.

[5] = mouse, in vivo, iv, 5 mg/kg
Procedure: The PEG carfilzomib compounds were administered to mice (Balb/c, male, n=9 per dose group) as an intravenous (i.v.) bolus at 5 mg/kg (equivalent to carfilzomib, dose volume 1 mL/kg). Blood samples from each mouse were collected at the indicated time points (0.5, 1, 2, 4, 6, 12, 16 and 24 hours post-dose) and 25 μL of the plasma samples were extracted by protein precipitation with 125 μL of acetonitrile containing D10-CFZ as an internal standard and then centrifuged. Carfilzomib concentrations were measured in the supernatant by LC-MS/MS using multiple reaction monitoring in the positive electrospray ionization mode. The lower limit of quantitation of the assay was 0.500 ng/mL.

[6] = PEG-carfilzomib mouse pK (FIG. 2); design: species or system mice (Balb/c); details: in vivo, iv
Procedure: Mean plasma concentration (μM) following intravenous administration of PEG-carfilzomib conjugate to female Balb/c mice (n=3). Dosage indicated is mg/kg of PEG-carfilzomib conjugate. […] Blood samples were collected at the indicated time points and plasma carfilzomib concentrations were measured in duplicate by LC/MS-MS. […] This standard carfilzomib represents the currently approved formulation for carfilzomib for treatment of multiple myeloma.

[7] = in humans; cited from earlier work
[8] = Group 3, 150 mpk to 250 mpk (QW) IV

With “4-(4-Acetoxy-3-((1-(PEG20K-4-Arm)-1H-1,2,3-triazol-4-yl)methoxy)benzyl)-4-((4S,7S,10S,13S)-10-benzyl-7-isobutyl-15-methyl-13-((R)-2-methyloxirane-2-carbonyl)-2,5,8,11-tetraoxo-4-phenethyl-3,6,9,12-tetraazahexadecyl)morpholin-4-ium methanesulfonate [Example 1]” the “CT-L activity versus standard carfilzomib” value [1] was “comparable”.

“4-(4-Acetoxy-3-((1-PEG2K-1H-1,2,3-triazol-4-yl)methoxy)benzyl)-4-((4S,7S,10S,13S)-10-benzyl-7-isobutyl-15-methyl-13-((R)-2-methyloxirane-2-carbonyl)-2,5,8,11-tetraoxo-4-phenethyl-3,6,9,12-tetraazahexadecyl)morpholin-4-ium mesylate [Example 36]” gave an IC50 [2] of ~21.8 nM.

“4-(4-Acetoxy-3-((1-PEG3K-1H-1,2,3-triazol-4-yl)methoxy)benzyl)-4-((4S,7S,10S,13S)-10-benzyl-7-isobutyl-15-methyl-13-((R)-2-methyloxirane-2-carbonyl)-2,5,8,11-tetraoxo-4-phenethyl-3,6,9,12-tetraazahexadecyl)morpholin-4-ium mesylate [Example 35]” showed an IC50 [2] of ~9 nM.

With “4-(4-acetoxy-3-((1-(5-((2-PEG2K-ethyl)amino)-5-oxopentyl)-1H-1,2,3-triazol-4-yl)methoxy)benzyl)-4-((4S,7S,10S,13S)-10-benzyl-7-isobutyl-15-methyl-13-((R)-2-methyloxirane-2-carbonyl)-2,5,8,11-tetraoxo-4-phenethyl-3,6,9,12-tetraazahexadecyl)morpholin-4-ium mesylate [Example 38]” the IC50 [2] was ~21.8 nM.

For “4-(4-acetoxy-3-((1-(5-((2-PEG3K-ethyl)amino)-5-oxopentyl)-1H-1,2,3-triazol-4-yl)methoxy)benzyl)-4-((4S,7S,10S,13S)-10-benzyl-7-isobutyl-15-methyl-13-((R)-2-methyloxirane-2-carbonyl)-2,5,8,11-tetraoxo-4-phenethyl-3,6,9,12-tetraazahexadecyl)morpholin-4-ium mesylate [Example 37]”, the IC50 [2] was ~22.8 nM.

In the case of “4-((4S,7S,10S,13S)-10-Benzyl-7-isobutyl-15-methyl-13-((R)-2-methyloxirane-2-carbonyl)-2,5,8,11-tetraoxo-4-phenethyl-3,6,9,12-tetraazahexadecyl)-4-(3-((1-(PEG20K-4-Arm)-1H-1,2,3-triazol-4-yl)methoxy)-4-(pivaloyloxy)benzyl)morpholin-4-ium formate [Example 13]”, the “Day-41 tumor sizes, % of control” value ([3]; Group 3, example 13 at 150 mg/kg IV (Table 7: QD × 2 (D1D2) × 6 weeks)) is reported as 79.6%, the “Day-41 tumor sizes, % of control” value ([3]; Group 4, example 13 at 250 mg/kg IV, QW × 6 weeks) is reported as 61.8% and the “tumor growth vs. vehicle control by Day 19” value ([4]; 200 mpk Example 13, 5 mpk CFZ-captisol) is reported as “significantly attenuated”. For the same compound, the “Day 40 Tumor Vol” value [4, 8] was 998.5 mm^3, the “% Change compared to Vehicle” value [4, 8] was −59.6% and the “Day 0 Tumor Vol” value [4, 8] was 95.5 mm^3. For the same compound, the “# of animals at day 40” value [4, 8] was 9, the “Day 40 Tumor Vol” value ([4]; Group 4, 200 mpk (QW) IV) was 1443.0 mm^3 and the “% Change compared to Vehicle” value ([4]; Group 4, 200 mpk (QW) IV) was −41.6%. For the same compound, the “Day 0 Tumor Vol” value ([4]; Group 4, 200 mpk (QW) IV) was 95.9 mm^3, the “# of animals at day 40” value ([4]; Group 4, 200 mpk (QW) IV) was 7 and the AUC0-24 [5] was 3510 ng·h/mL. For the same compound, the T1/2 [5] was 3.68 h, the “carfilzomib plasma concentration-time profile (FIG. 4)” value [5] was “significantly higher plasma concentrations for that lengthy duration of time” and the “time carfilzomib is present in / released into the plasma post administration” value [5] was 25 h. The “plasma concentration relative to control” value [6] was “multiple log-fold over that of the control”.

In the case of `CC(C)C[C@H](NC(=O)[C@H](CCc1ccccc1)NC(=O)CN1CCOCC1)C(=O)N[C@@H](Cc1ccccc1)C(=O)N[C@@H](CC(C)C)C(=O)[C@@]1(C)CO1` [carfilzomib, Carfilzomib], the IC50 [2] is given as ~9.2 nM and the half-life in-vivo [7] is given as ≤ 1 h.

Source: patent publication US10517954B2, “Pegylated carfilzomib compounds” (AMGEN INC., priority 2016, dated 2019)
